Data taken from US9918990B2, “Substituted pyrrolo[2,3-c]pyridines and pyrazolo[3,4-c]pyridines as BET protein inhibitors” (Incyte Corporation, priority 2013, dated 2018).

Assays:
C-myc = assay: KMS.12.BM C-myc ELISA assay; format: cell-based; conditions: Homo sapiens; KMS.12.BM cells, 2 hours, concentration required for 50% C-myc inhibition
Method: KMS.12.BM cell line (human myeloma) was purchased from JCRB (Osaka, Japan) and maintained in RPMI with 10% FBS culture medium. To measure the C-myc inhibitory activity of the compounds, the KMS.12.BM cells are plated in the RPMI culture medium at 75000 cells/well/per 200 μL into a 96-well flat bottom polystyrene tissue culture plate (Corning through VWR, NJ), in the presence or absence of a concentration range of test compounds. After 2 hours, cell are pelleted and lysed with Cell Extraction Buffer (BioSource, Carlsbad, Calif.) in the presence of protease inhibitors (Life Technologies, Grand Island, N.Y. and Sigma, St Louis, Mo.). Clarified lyses are tested in a C-myc commercial ELISA (Life Technologies, Grand Island, N.Y.). Compound inhibition is determined relative to cells cultured with no drug and the IC50 is reported as the compound concentration required for 50% C-myc inhibition. IC50 data for the Examples is presented in Table 10 as determined by Assay C1.

BRD4-BD1 = BRD4-BD1 (Homo sapiens (Human), UniProt O60885); assay: BRD4 AlphaScreen assay, BRD4-BD1; format: binding; conditions: H4Ac4 peptide, 75 min, room temperature, read-out: BRD4 BD-1 enzyme IC50
Summary of the method: (§1)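 AlphaScreen read after 75 min dark incubation at room temperature, inhibitors serially diluted in DMSO and added before other components. IC50 from fit of percent control activity versus log inhibitor concentration.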

BRD4-BD2 = BRD4-BD2 (Homo sapiens (Human), UniProt O60885); assay: BRD4 AlphaScreen assay, BRD4-BD2; format: binding; conditions: H4Ac4 peptide, 75 min, room temperature, read-out: BRD4 BD-2 enzyme IC50
Summary of the method: as §1

KMS.12.BM cells = assay: KMS.12.BM cell viability assay (Cell Titer-GLO, ATP quantitation); format: cell-based; conditions: Homo sapiens, 72 h, 3 days, concentration required for 50% cell death, read-out: KMS cellular IC50
Summary of the method: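 Human myeloma KMS.12.BM cells, 5000 cells/well in RPMI with 10% FBS, were exposed to a compound concentration range for 3 days. Viability was read by Cell Titer-GLO ATP luminescence relative to untreated cells; IC50 is the concentration giving 50% cell death.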

Compound	IC50 (C-myc) [µM]	IC50 (BRD4-BD1) [µM]	IC50 (BRD4-BD2) [µM]	IC50 (KMS.12.BM cells) [µM]
Cn1cc(-c2ccc3c([nH]c(=O)n3C)c2Oc2ccccc2F)c2cc[nH]c2c1=O [Example 39, 4-(2-Fluorophenoxy)-1-methyl-5-(6-methyl-7-oxo-6,7-dihydro-1H-pyrrolo[2,3-c]pyridin-4-yl)-1,3-dihydro-2H-benzimidazol-2-one]	≤ 1	< 0.1	< 0.1	≤ 1
Cn1cc(-c2ccc3c([nH]c(=O)n3C)c2Oc2cccc(F)c2)c2cc[nH]c2c1=O [Example 40, 4-(3-Fluorophenoxy)-1-methyl-5-(6-methyl-7-oxo-6,7-dihydro-1H-pyrrolo[2,3-c]pyridin-4-yl)-1,3-dihydro-2H-benzimidazol-2-one]	≤ 1	< 0.1	< 0.1	≤ 1
Cn1cc(-c2ccc3c([nH]c(=O)n3C)c2Oc2ccc(F)cc2)c2cc[nH]c2c1=O [Example 41, 4-(4-Fluorophenoxy)-1-methyl-5-(6-methyl-7-oxo-6,7-dihydro-1H-pyrrolo[2,3-c]pyridin-4-yl)-1,3-dihydro-2H-benzimidazol-2-one]	≤ 1	< 0.1	< 0.1	≤ 1
Cn1cc(-c2ccc3ncn(CCN4CCOCC4)c3c2Oc2ccccc2)c2cc[nH]c2c1=O [Example 42, 6-Methyl-4-[1-(2-morpholin-4-ylethyl)-7-phenoxy-1H-benzimidazol-6-yl]-1,6-dihydro-7H-pyrrolo[2,3-c]pyridin-7-one]	≤ 1	< 0.1	< 0.1	≤ 1
Cn1cc(-c2ccc3c(ncn3CCN3CCOCC3)c2Oc2ccccc2)c2cc[nH]c2c1=O [Example 43, 6-methyl-4-[1-(2-morpholin-4-ylethyl)-4-phenoxy-1H-benzimidazol-5-yl]-1,6-dihydro-7H-pyrrolo[2,3-c]pyridin-7-one]	≤ 1	< 0.1	< 0.1	≤ 1
Cn1cc(-c2ccc3ncn(Cc4ccccc4)c3c2Oc2ccccc2)c2cc[nH]c2c1=O [Example 45, 4-(1-Benzyl-7-phenoxy-1H-benzimidazol-6-yl)-6-methyl-1,6-dihydro-7H-pyrrolo[2,3-c]pyridin-7-one]	≤ 1	< 0.1	< 0.1	≤ 1
Cn1cc(-c2ccc3c(ncn3Cc3ccccc3)c2Oc2ccccc2)c2cc[nH]c2c1=O [Example 46, 4-(1-Benzyl-4-phenoxy-1H-benzimidazol-5-yl)-6-methyl-1,6-dihydro-7H-pyrrolo[2,3-c]pyridin-7-one]	≤ 1	< 0.1	< 0.1	≤ 1
Cn1cc(-c2ccc3ncn(CCc4ccccc4)c3c2Oc2ccccc2)c2cc[nH]c2c1=O [Example 47, 6-Methyl-4-[7-phenoxy-1-(2-phenylethyl)-1H-benzimidazol-6-yl]-1,6-dihydro-7H-pyrrolo[2,3-c]pyridin-7-one]	≤ 1	< 0.1	< 0.1	≤ 1
Cn1cc(-c2ccc3c(ncn3CCc3ccccc3)c2Oc2ccccc2)c2cc[nH]c2c1=O [Example 48, 6-Methyl-4-[4-phenoxy-1-(2-phenylethyl)-1H-benzimidazol-5-yl]-1,6-dihydro-7H-pyrrolo[2,3-c]pyridin-7-one]	≤ 1	< 0.1	< 0.1	≤ 1
Cn1cc(-c2ccc3ncn(CCCC#N)c3c2Oc2ccccc2)c2cc[nH]c2c1=O [Example 51, 4-[6-(6-Methyl-7-oxo-6,7-dihydro-1H-pyrrolo[2,3-c]pyridin-4-yl)-7-phenoxy-1H-benzimidazol-1-yl]butanenitrile]	≤ 1	< 0.1	< 0.1	≤ 1
Cn1cc(-c2ccc3c(ncn3CCCC#N)c2Oc2ccccc2)c2cc[nH]c2c1=O [Example 52, 4-[5-(6-Methyl-7-oxo-6,7-dihydro-1H-pyrrolo[2,3-c]pyridin-4-yl)-4-phenoxy-1H-benzimidazol-1-yl]butanenitrile]	≤ 1	< 0.1	< 0.1	≤ 1
COc1c(-c2cn(C)c(=O)c3[nH]ccc23)ccc2c1n(CCCC#N)c(=O)n2C [Example 53, 4-[7-Methoxy-3-methyl-6-(6-methyl-7-oxo-6,7-dihydro-1H-pyrrolo[2,3-c]pyridin-4-yl)-2-oxo-2,3-dihydro-1H-benzimidazol-1-yl]butanenitrile]	≤ 1	0.1 to 1	< 0.1	≤ 1
COc1c(-c2cn(C)c(=O)c3[nH]ccc23)ccc2c1n(CCC#N)c(=O)n2C [Example 54, 3-[7-Methoxy-3-methyl-6-(6-methyl-7-oxo-6,7-dihydro-1H-pyrrolo[2,3-c]pyridin-4-yl)-2-oxo-2,3-dihydro-1H-benzimidazol-1-yl]propanenitrile]	≤ 1	0.1 to 1	< 0.1	≤ 1
Cn1cc(-c2ccc3ncn(CCC#N)c3c2Oc2ccccc2)c2cc[nH]c2c1=O [Example 55, 3-[6-(6-Methyl-7-oxo-6,7-dihydro-1H-pyrrolo[2,3-c]pyridin-4-yl)-7-phenoxy-1H-benzimidazol-1-yl]propanenitrile]	≤ 1	< 0.1	< 0.1	≤ 1
Cn1cc(-c2ccc3c(ncn3C)c2Oc2ccccc2)c2cc[nH]c2c1=O [Example 56, 6-Methyl-4-(1-methyl-4-phenoxy-1H-benzimidazol-5-yl)-1,6-dihydro-7H-pyrrolo[2,3-c]pyridin-7-one]	≤ 1	< 0.1	< 0.1	≤ 1
Cn1cc(-c2ccc3c(ncn3C)c2Oc2ccccc2F)c2cc[nH]c2c1=O [Example 57, 4-[4-(2-Fluorophenoxy)-1-methyl-1H-benzimidazol-5-yl]-6-methyl-1,6-dihydro-7H-pyrrolo[2,3-c]pyridin-7-one]	≤ 1	< 0.1	< 0.1	≤ 1
Cn1cc(-c2ccc3c(ncn3C)c2Oc2cccc(F)c2)c2cc[nH]c2c1=O [Example 58, 4-[4-(3-Fluorophenoxy)-1-methyl-1H-benzimidazol-5-yl]-6-methyl-1,6-dihydro-7H-pyrrolo[2,3-c]pyridin-7-one]	≤ 1	< 0.1	< 0.1	≤ 1
Cn1cc(-c2ccc3c(ncn3C)c2Oc2ccc(F)cc2)c2cc[nH]c2c1=O [Example 59, 4-[4-(4-Fluorophenoxy)-1-methyl-1H-benzimidazol-5-yl]-6-methyl-1,6-dihydro-7H-pyrrolo[2,3-c]pyridin-7-one]	≤ 1	< 0.1	< 0.1	≤ 1
Cn1cc(-c2ccc3c(c2OCC2CCC2)n(CCN2CCOCC2)c(=O)n3C)c2cc[nH]c2c1=O [Example 60, 4-(Cyclobutylmethoxy)-1-methyl-5-(6-methyl-7-oxo-6,7-dihydro-1H-pyrrolo[2,3-c]pyridin-4-yl)-3-(2-morpholin-4-ylethyl)-1,3-dihydro-2H-benzimidazol-2-one]	≤ 1	< 0.1	< 0.1	≤ 1
Cn1cc(-c2ccc3c(c2OCC2CCC2)n(CCCC#N)c(=O)n3C)c2cc[nH]c2c1=O [Example 61, 4-[7-(Cyclobutylmethoxy)-3-methyl-6-(6-methyl-7-oxo-6,7-dihydro-1H-pyrrolo[2,3-c]pyridin-4-yl)-2-oxo-2,3-dihydro-1H-benzimidazol-1-yl]butanenitrile]	≤ 1	< 0.1	< 0.1	≤ 1
Cn1cc(-c2ccc3c(c2OCC2CCC2)n(CCC#N)c(=O)n3C)c2cc[nH]c2c1=O [Example 62, 3-[7-(Cyclobutylmethoxy)-3-methyl-6-(6-methyl-7-oxo-6,7-dihydro-1H-pyrrolo[2,3-c]pyridin-4-yl)-2-oxo-2,3-dihydro-1H-benzimidazol-1-yl]propanenitrile]	≤ 1	< 0.1	< 0.1	≤ 1
Cn1cc(-c2ccc3c(c2OCC2CCC2)n(Cc2ccccc2)c(=O)n3C)c2cc[nH]c2c1=O [Example 64, 3-Benzyl-4-(cyclobutylmethoxy)-1-methyl-5-(6-methyl-7-oxo-6,7-dihydro-1H-pyrrolo[2,3-c]pyridin-4-yl)-1,3-dihydro-2H-benzimidazol-2-one]	≤ 1	< 0.1	< 0.1	≤ 1
CC(=O)N1CCN(CCn2c(=O)n(C)c3ccc(-c4cn(C)c(=O)c5[nH]ccc45)c(OCC4CCC4)c32)CC1 [Example 66, 3-(2-(4-Acetylpiperazin-1-yl)ethyl)-4-(cyclobutylmethoxy)-1-methyl-5-(6-methyl-7-oxo-6,7-dihydro-1H-pyrrolo[2,3-c]pyridin-4-yl)-1H-benzo[d]imidazol-2(3H)-one]	≤ 1	< 0.1	< 0.1	≤ 1
